Among the data in PubChem BioAssay (NCI) are TGI and GI50 values, retold here.

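Values below derive from 48-hour exposures of cells grown in 96-well plates, with endpoints linearly interpolated between the two concentrations bracketing the appropriate inhibition level. GI50 is the concentration that inhibits growth by half. TGI marks complete inhibition of growth.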 Bounds are passed on as bounds.

Assay in all cases: growth of human tumour cells (NCI), 48 h
Experiment [1] deals with HOP-92 NSCLC.
The subject of experiment [2] is RPMI-8226 leukemia.
Experiment [3] relates to OVCAR-8 ovarian.
The test system of experiment [4] is U251 CNS.
For experiment [5], the system named is SK-MEL-2 melanoma.
The test system of experiment [6] is HCC-2998 colon.
Experiment [7] deals with SNB-19 CNS.
Experiment [8] deals with NCI-H460 lung.
For experiment [9], the system named is NCI/ADR-RES ovarian.
Experiment [10] has as its system DU-145 prostate.

As for `Cc1ccc(S(=O)(=O)OCCOCCOCCOCCOCCOS(=O)(=O)c2ccc(C)cc2)cc1`, the TGI in [1] was 99.3 µM; in experiment [2] it was 92.7 µM; in experiment [3] it was 88 µM; in experiment [4], above 100 µM; in experiment [5] it was above 100 µM; in experiment [6] it was above 100 µM. Further, the TGI in experiment [7] and in experiment [8] was above 100 µM throughout.

In the case of `CN(C)CCNC(=O)c1ccc2oc3cc4ccccc4c(=O)n3c2c1`, the GI50 is above 100 µM in experiment [1]; 51.2 µM in experiment [2]; 23.1 µM in experiment [3]; 34.3 µM in experiment [4]; 21.4 µM in [5]; 37.4 µM in experiment [9]. For the same molecule, the GI50 in [10] was 33.4 µM; in experiment [7] it was 40.9 µM; in experiment [8], 42.2 µM. In addition, the TGI in experiment [1] is above 100 µM; in experiment [2], above 100 µM; in experiment [3], 76.2 µM; in [4], above 100 µM; in [5], 63.5 µM; in [9], above 100 µM. In addition, the TGI in experiment [10], in experiment [7] and in [8] was above 100 µM each time.

For `COc1cc(O)c2c(c1)C(=O)C1=C(C2=O)C(O)C[C@@](C)(O)C1` (some centres undefined), the TGI was determined as 3.57 µM in [1]; 6.52 µM in [2]; 6.15 µM in experiment [3]; 6.34 µM in [4]; 5.05 µM in experiment [5]; 2.91 µM in [6]. Besides, the TGI in [7] was 14.1 µM; in experiment [8], 4.96 µM.

Consider `CCOC(=O)CN(c1ccccc1)c1nc(=[N+](C)C)ss1`, for which the TGI in [2] was 55.5 µM; in experiment [3] it was 70.1 µM; in [4], 41.5 µM; in experiment [5], 55.9 µM; in [6] it was above 100 µM; in experiment [7] it was above 100 µM.

For `CCCCCCCCCCOC(=O)NCCC`, the TGI in experiment [1] is 48.1 µM; in experiment [2], 43.3 µM; in experiment [3] it was above 100 µM; in experiment [4], 80.6 µM; in experiment [5] it was 41 µM; in experiment [6], 76.8 µM. The TGI in experiment [7] is above 100 µM; in experiment [8] it was 65.9 µM.

In the case of `O=C(O)CN(c1ccc(F)cc1)S(=O)(=O)c1ccccc1`, the TGI in [1], in experiment [2], in experiment [3], in experiment [4], in [5] and in experiment [7] was above 100 µM each time. The TGI in experiment [8] is above 100 µM.

Turning to `NC(=O)c1cc(Br)ccc1NC(=O)/C=C/c1ccccc1`, the GI50 was 5.34 µM in experiment [1]; 3.29 µM in [2]; 14.1 µM in experiment [3]; 1.81 µM in [4]; 28.1 µM in experiment [6]; 2.3 µM in experiment [10]. Moreover, the GI50 in [7] is 5.36 µM; in [8], 1.42 µM. In addition, the TGI in experiment [1] is 25.8 µM; in [2], above 100 µM; in experiment [3], above 100 µM; in experiment [4], above 43.4 µM; in [6], above 100 µM; in [10] it was above 100 µM. Also, the TGI in experiment [7] was above 36.9 µM; in experiment [8], above 100 µM.

Consider `[Cu+2].[NH-]C(CC(=O)O)C(=O)O.[NH-]C(CC(=O)O)C(=O)O` (centres undefined), for which the GI50 in [1], in [2], in experiment [3], in experiment [4], in [5] and in [9] was above 100 µM throughout. The GI50 in experiment [10] is above 100 µM; in experiment [7], 49.5 µM; in experiment [8], above 100 µM. Moreover, the TGI in experiment [1], in experiment [2], in experiment [3], in [4], in [5] and in experiment [9] was above 100 µM throughout. Further, the TGI in experiment [10], in experiment [7] and in experiment [8] was above 100 µM throughout.

As to `C=CCOC(=O)Nc1cccn([C@H](CC(C)C)C(=O)NCCC(C)C)c1=O`, the GI50 was 2.67 µM in experiment [1]; 22.7 µM in experiment [2]; above 100 µM in [3]; 92.3 µM in experiment [4]; above 100 µM in experiment [5]; 57.9 µM in [9]. Further, the GI50 in experiment [10], in [7] and in experiment [8] was above 100 µM throughout. For the same molecule, the TGI is 57.8 µM in experiment [1]; above 100 µM in experiment [2]; above 100 µM in experiment [3]; above 100 µM in experiment [4]; above 100 µM in experiment [5]; above 100 µM in experiment [9]. In addition, the TGI in experiment [10], in [7] and in experiment [8] was above 100 µM throughout.

As to `COc1cc(CCNC(=O)OC(C)(C)C)c2c(c1OC)SSSSS2`, the GI50 in experiment [1] is 2.31 µM; in experiment [2] it was 2.11 µM; in [3] it was 3.53 µM; in experiment [4] it was 2.47 µM; in experiment [5] it was 2.45 µM; in [9] it was 3.64 µM. The figures for the GI50 in experiment [7] and in [8] were 2.7 µM and 2.04 µM, respectively. For the same molecule, the TGI in experiment [1] amounted to 4.79 µM; in [2] it was 10.7 µM; in [3] it was 11.7 µM; in [4], 5.28 µM; in experiment [5], 5.68 µM; in experiment [9], 70.2 µM. Also, the TGI in experiment [7] is 5.63 µM; in [8] it was 4.81 µM.

With `CC[PH+](CC)CC.CC[PH+](CC)CC.[Au]`, the GI50 in experiment [1] was 7.43 µM; in experiment [2], 3.87 µM; in experiment [3], 17.9 µM; in [4], 8.21 µM; in [5], 2.73 µM; in experiment [6] it was 20.7 µM. Moreover, the GI50 in [7] is 13.4 µM; in [8], 23.5 µM. Besides, the TGI worked out at 15.2 µM in experiment [1]; 30.2 µM in experiment [2]; 38.1 µM in experiment [3]; 24.3 µM in [4]; 15.8 µM in experiment [5]; 35.2 µM in [6]. Also, the TGI in experiment [7] is 26.4 µM; in [8] it was 60.9 µM.
